Laboratory results taken from patent US10167262B2, “Herbicidal substituted 3-arylpyrazoles” (FMC CORPORATION, priority 2014, dated 2019).

Legend:
Assay type in all cases: in vivo
rice (Oryza sativa) = assay: Test B flooded paddy test, plant response rating 0-100; details: Flood, 250 g ai/ha; scale 0 to 100 (0 no effect, 100 complete control); 13 to 15 days
In short: (§1)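 In-water treatment: compound dosed into 3 cm flood over soil, water level unchanged throughout. Controls run alongside; visual assessment at day 13–15.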

[1] = system: ducksalad (Heteranthera limosa); assay: as above; details: Flood, 250 g ai/ha; scale 0 to 100 (0 no effect, 100 complete control); 13 to 15 days
In short: as §1

[2] = system: barnyardgrass (Echinochloa crus-galli); assay: as above; details: Flood, 250 g ai/ha; scale 0 to 100 (0 no effect, 100 complete control); 13 to 15 days
In short: as §1

[3] = system: sedge, umbrella (small-flower umbrella sedge, Cyperus difformis); assay: as above; details: Flood, 250 g ai/ha; scale 0 to 100 (0 no effect, 100 complete control); 13 to 15 days
In short: as §1

[4] = system: yellow nutsedge (Cyperus esculentus); assay: Test E pre-/postemergence greenhouse test, plant response rating 0-100; details: Preemergence, scale 0 to 100
[5] = system: large (Lg) crabgrass (Digitaria sanguinalis); assay: as above; details: Preemergence, scale 0 to 100
kochia (Kochia scoparia) = assay: as above; details: Preemergence, scale 0 to 100
In short: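 Preemergence application to planted silt loam and postemergence application to 2–18 cm seedlings are run simultaneously. Evaluation is visual against controls after 14 to 21 days, scored from 0 (no effect) to 100 (complete control).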

[6] = system: waterhemp_RES1, (ALS & Triazine resistant common waterhemp, Amaranthus rudis); assay: Test E postemergence greenhouse test, plant response rating 0-100; details: scale 0 to 100
In short: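 Visual ratings, 0 (no effect) to 100 (complete control), made versus controls 14–21 days after postemergence application in the greenhouse. Plants were at 1- to 4-leaf stage (2–18 cm) in peat moss/vermiculite potting medium.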

[7] = system: johnsongrass (Sorghum halepense); assay: Test E pre-/postemergence greenhouse test, plant response rating 0-100; details: Preemergence, scale 0 to 100
[8] = system: bermudagrass (Cynodon dactylon); assay: Test C postemergence greenhouse test, plant response rating 0-100; details: for Plant response rating, Bermudagrass: scale 0 to 100
In short: (§2)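 Postemergence spray onto 1–4-leaf potted seedlings, greenhouse incubation 13–15 days. Visual percent-control rating (0–100) against untreated plants.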

[9] = system: green foxtail (Setaria viridis); assay: as above; details: for Plant response rating, Foxtail, Green: scale 0 to 100
In short: as §2

[10] = system: downy bromegrass (Bromus tectorum); assay: as above; details: for Plant response rating, Bromegrass, Downy: scale 0 to 100
In short: as §2

[11] = system: surinam grass (Brachiaria decumbens); assay: as above; details: for Plant response rating, Surinam Grass: scale 0 to 100
In short: as §2

[12] = system: winter barley (Hordeum vulgare); assay: as above; details: for Plant response rating, Barley: scale 0 to 100
In short: as §2

[13] = system: windgrass (Apera spica-venti); assay: as above; details: for Plant response rating, Windgrass: scale 0 to 100
In short: as §2

[14] = system: smartweed (ladysthumb smartweed, Polygonum persicaria); assay: Test E pre-/postemergence greenhouse test, plant response rating 0-100; details: Postemergence, scale 0 to 100

O=Cn1cc(C(=O)c2ccccc2)c(-c2cc(Cl)cc(Cl)c2)n1 [Compound 28]
Plant response rating, Rice (rice (Oryza sativa)): 0
Plant response rating, Ducksalad [1]: 0
Plant response rating, Barnyardgrass [2]: 0
Plant response rating, Sedge, Umbrella [3]: 0
Nutsedge, Yellow plant response rating ([4]; 31 g ai/ha): 0
Nutsedge, Yellow plant response rating ([4]; 62 g ai/ha): 0
Nutsedge, Yellow plant response rating ([4]; 125 g ai/ha): 0
Nutsedge, Yellow plant response rating ([4]; 250 g ai/ha): 0
Nutsedge, Yellow plant response rating ([4]; 500 g ai/ha): 0
Crabgrass, Large plant response rating ([5]; 31 g ai/ha): 0
Crabgrass, Large plant response rating ([5]; 62 g ai/ha): 0
Crabgrass, Large plant response rating ([5]; 125 g ai/ha): 0
Crabgrass, Large plant response rating ([5]; 250 g ai/ha): 0
Crabgrass, Large plant response rating ([5]; 500 g ai/ha): 0
Kochia plant response rating (kochia (Kochia scoparia); 31 g ai/ha): 15
Kochia plant response rating (kochia (Kochia scoparia); 62 g ai/ha): 20
Kochia plant response rating (kochia (Kochia scoparia); 125 g ai/ha): 40
Kochia plant response rating (kochia (Kochia scoparia); 250 g ai/ha): 40
Kochia plant response rating (kochia (Kochia scoparia); 500 g ai/ha): 85
Plant response rating, Waterhemp_RES1 ([6]; 31 g ai/ha): 85
Plant response rating, Waterhemp_RES1 ([6]; 62 g ai/ha): 85
Plant response rating, Waterhemp_RES1 ([6]; 125 g ai/ha): 90
Plant response rating, Waterhemp_RES1 ([6]; 250 g ai/ha): 95
Plant response rating, Waterhemp_RES1 ([6]; 500 g ai/ha): 90
Johnsongrass plant response rating ([7]; 31 g ai/ha): 0
Johnsongrass plant response rating ([7]; 62 g ai/ha): 0
Johnsongrass plant response rating ([7]; 125 g ai/ha): 0
Johnsongrass plant response rating ([7]; 250 g ai/ha): 0
Johnsongrass plant response rating ([7]; 500 g ai/ha): 0

C#CCn1cc(C(=O)c2ccccc2)c(-c2cc(Cl)cc(Cl)c2)n1 [Compound 39, [3-(3,5-dichlorophenyl)-1-(2-propyn-1-yl)-1H-pyrazol-4-yl]phenylmethanone]
Plant response rating, Rice (rice (Oryza sativa)): 0
Plant response rating, Ducksalad [1]: 0
Plant response rating, Barnyardgrass [2]: 0
Plant response rating, Sedge, Umbrella [3]: 0
Nutsedge, Yellow plant response rating ([4]; 62 g ai/ha): 0
Nutsedge, Yellow plant response rating ([4]; 125 g ai/ha): 0
Nutsedge, Yellow plant response rating ([4]; 250 g ai/ha): 0
Nutsedge, Yellow plant response rating ([4]; 500 g ai/ha): 0
Crabgrass, Large plant response rating ([5]; 62 g ai/ha): 0
Crabgrass, Large plant response rating ([5]; 125 g ai/ha): 0
Crabgrass, Large plant response rating ([5]; 250 g ai/ha): 0
Crabgrass, Large plant response rating ([5]; 500 g ai/ha): 0
Kochia plant response rating (kochia (Kochia scoparia); 62 g ai/ha): 0
Kochia plant response rating (kochia (Kochia scoparia); 125 g ai/ha): 30
Kochia plant response rating (kochia (Kochia scoparia); 250 g ai/ha): 65
Kochia plant response rating (kochia (Kochia scoparia); 500 g ai/ha): 75
Plant response rating (0 to 100), Bermudagrass ([8]; 62 g ai/ha): 0
Plant response rating (0 to 100), Bermudagrass ([8]; 125 g ai/ha): 0
Plant response rating, Bermudagrass ([8]; 250 g ai/ha): 0
Plant response rating, Bermudagrass ([8]; 500 g ai/ha): 0
Plant response rating (0 to 100), Foxtail, Green ([9]; 62 g ai/ha): 0
Plant response rating (0 to 100), Foxtail, Green ([9]; 125 g ai/ha): 0
Plant response rating, Foxtail, Green ([9]; 250 g ai/ha): 0
Plant response rating, Foxtail, Green ([9]; 500 g ai/ha): 5
Plant response rating (0 to 100), Bromegrass, Downy ([10]; 62 g ai/ha): 0
Plant response rating (0 to 100), Bromegrass, Downy ([10]; 125 g ai/ha): 0
Plant response rating, Bromegrass, Downy ([10]; 250 g ai/ha): 0
Plant response rating, Bromegrass, Downy ([10]; 500 g ai/ha): 5
Plant response rating (0 to 100), Surinam Grass ([11]; 62 g ai/ha): 0
Plant response rating (0 to 100), Surinam Grass ([11]; 125 g ai/ha): 0
Plant response rating, Surinam Grass ([11]; 250 g ai/ha): 0
Plant response rating, Surinam Grass ([11]; 500 g ai/ha): 0
Plant response rating (0 to 100), Barley ([12]; 62 g ai/ha): 0
Plant response rating (0 to 100), Barley ([12]; 125 g ai/ha): 0
Plant response rating, Barley ([12]; 250 g ai/ha): 0
Plant response rating, Barley ([12]; 500 g ai/ha): 0
Plant response rating (0 to 100), Windgrass ([13]; 62 g ai/ha): 0
Plant response rating (0 to 100), Windgrass ([13]; 125 g ai/ha): 0
Plant response rating, Windgrass ([13]; 250 g ai/ha): 0
Plant response rating, Windgrass ([13]; 500 g ai/ha): 0
Plant response rating, Waterhemp_RES1 ([6]; 31 g ai/ha): 85
Plant response rating, Waterhemp_RES1 ([6]; 62 g ai/ha): 85
Plant response rating, Waterhemp_RES1 ([6]; 125 g ai/ha): 90
Plant response rating, Waterhemp_RES1 ([6]; 250 g ai/ha): 90
Plant response rating, Waterhemp_RES1 ([6]; 500 g ai/ha): 95
Johnsongrass plant response rating ([7]; 62 g ai/ha): 0
Johnsongrass plant response rating ([7]; 125 g ai/ha): 0
Johnsongrass plant response rating ([7]; 250 g ai/ha): 0
Johnsongrass plant response rating ([7]; 500 g ai/ha): 0

C=CCn1cc(C(=O)c2ccccc2)c(-c2cc(Cl)cc(Cl)c2)n1 [Compound 60]
Plant response rating, Smartweed ([14]; 31 g ai/ha): 0
Plant response rating, Smartweed ([14]; 62 g ai/ha): 0
Plant response rating, Smartweed ([14]; 125 g ai/ha): 0
Plant response rating, Smartweed ([14]; 250 g ai/ha): 0
Plant response rating (0 to 100), Bermudagrass ([8]; 31 g ai/ha): 0
Plant response rating (0 to 100), Bermudagrass ([8]; 62 g ai/ha): 5
Plant response rating (0 to 100), Bermudagrass ([8]; 125 g ai/ha): 5
Plant response rating, Bermudagrass ([8]; 250 g ai/ha): 5
Plant response rating (0 to 100), Foxtail, Green ([9]; 31 g ai/ha): 0
Plant response rating (0 to 100), Foxtail, Green ([9]; 62 g ai/ha): 0
Plant response rating (0 to 100), Foxtail, Green ([9]; 125 g ai/ha): 0
Plant response rating, Foxtail, Green ([9]; 250 g ai/ha): 0
Plant response rating (0 to 100), Bromegrass, Downy ([10]; 31 g ai/ha): 0
Plant response rating (0 to 100), Bromegrass, Downy ([10]; 62 g ai/ha): 0
Plant response rating (0 to 100), Bromegrass, Downy ([10]; 125 g ai/ha): 0
Plant response rating, Bromegrass, Downy ([10]; 250 g ai/ha): 0
Plant response rating (0 to 100), Surinam Grass ([11]; 62 g ai/ha): 0
Plant response rating (0 to 100), Surinam Grass ([11]; 125 g ai/ha): 0
Plant response rating, Surinam Grass ([11]; 250 g ai/ha): 5
Plant response rating (0 to 100), Barley ([12]; 31 g ai/ha): 0
Plant response rating (0 to 100), Barley ([12]; 62 g ai/ha): 0
Plant response rating (0 to 100), Barley ([12]; 125 g ai/ha): 0
Plant response rating, Barley ([12]; 250 g ai/ha): 0
Plant response rating (0 to 100), Windgrass ([13]; 62 g ai/ha): 0
Plant response rating (0 to 100), Windgrass ([13]; 125 g ai/ha): 0
Plant response rating, Windgrass ([13]; 250 g ai/ha): 0
